Source: patent US20240287124A1, “PRODRUGS OF 4'-SUBSTITUTED NUCLEOSIDE REVERSE TRANSCRIPTASE INHIBITORS” (Merck Sharp & Dohme LLC, priority 2023, published 2024)
Converted amounts (≈) assume the structure as drawn.

Tested on: HIV-1 wild-type (R8) virus
Test: Viral KINetics in Green cells (VIKING) assay, HIV-1 replication in MT4-GFP reporter cells
Type: cell-based
Details: Human immunodeficiency virus 1, 10% normal human serum, MT4-GFP cells, HIV-1 wild-type (R8); read-out: Viking (10% NHS), IC50
Protocol: Antiviral potency of the compounds was determined based on their ability to block HIV-1 replication in a GFP reporter cell line; this assay is referred to as Viral KINetics in Green cells or VIKING assay. HIV-1 replication was monitored using MT4-gag-GFP clone D3 (hereafter designate MT4-GFP) cells, which are MT4 cells modified to harbor a GFP reporter gene, the expression of which is dependent on the HIV-1 proteins tat and rev. (MT4 is a human T-cell line that is particularly sensitive to HIV-1 replication.) HIV-1 infection of MT4-GFP cells results in GFP expression approximately 24 h post-infection. MT4-GFP cells were maintained at 37° C./5% CO2/90% relative humidity in RPMI 1640 supplemented with 10% fetal bovine serum, 100 U/mL penicillin/streptomycin, and […] G418 to maintain the reporter gene. For infections, MT4-GFP cells were placed in the same medium lacking G418 and infected overnight with HIV-1 wild-type (R8) virus at an approximate multiplicity of infection of 0.01 in the same incubation conditions. Cells were then washed and resuspended in RPMI 1640 containing 10% normal human serum at 2×10^5 cells/mL. Compound plates were prepared by dispensing compounds dissolved in DMSO into wells of 384-well poly D lysine-coated plates (0.2 μl/well) using an ECHO acoustic dispenser. Each compound was tested in a 10-point serial 3-fold dilution (typical final concentrations: 4 μM-0.2 nM). Controls included no inhibitor (DMSO only) and a combination of three antiviral agents as a positive control (efavirenz, indinavir, and an integrase strand transfer inhibitor at final concentrations of 4 μM each). Infected cells were added (50 μL/well) to compound plates and were maintained at 37° C./5% CO2/90% relative humidity. Infected cells were quantified at two time points, approximately 48 h and 72 h post-infection, by counting the number of green cells in each well using an Acumen eX3 scanner. The increase in the number of green cells over ˜24 h period gives the reproductive ratio, R, which is calculated by dividing the number of green cells at 72 h over those at 48 h post-infection. The percent inhibition caused by a test compound is calculated using the following formula: […]
The dose-response curves of each test compound were plotted as % inhibition versus the compound concentration. IC50 values were determined by non-linear 4-parameter fitting of the dose-response curves.

Point of comparison: C#C[C@]1(COCOC(=O)Oc2ccccc2)O[C@@H](n2ccc3c(N)nc(Cl)nc32)C[C@@H]1O [Example 135], IC50 3.8 nM. Against it:
- C#C[C@]1(COC(=O)CCCC)O[C@@H](n2ccc3c(N)nc(Cl)nc32)C[C@@H]1OC(=O)OCC [Example 146] — 5-fold higher, 19 nM
- C#C[C@]1(COC(=O)OCc2cccn(C)c2=O)O[C@@H](n2ccc3c(N)nc(Cl)nc32)C[C@@H]1OC(=O)OCc1cccn(C)c1=O [Example 206] — within 1.5-fold, 3.4 nM
- C#C[C@]1(COC(=O)OCC(C)(C)C)O[C@@H](n2ccc3c(N)nc(Cl)nc32)C[C@@H]1O [Example 123] — within 1.5-fold, 4.1 nM
- C#C[C@]1(CO)O[C@@H](n2ccc3c(N)nc(Cl)nc32)C[C@@H]1OCOC(=O)c1ccccc1 [Example 139] — within 1.5-fold, 3.6 nM
- C#C[C@]1(COC(=O)CCCC[C@@H]2SC[C@@H]3NC(=O)N[C@@H]32)O[C@@H](n2ccc3c(N)nc(Cl)nc32)C[C@@H]1OC(=O)OCC [Example 196] — 7.1-fold higher, 27 nM
- C#C[C@]1(CO)O[C@@H](n2ccc3c(NC(=O)OCc4ccccc4)nc(Cl)nc32)C[C@@H]1O [Example 72, benzyl (2-chloro-7-((2R,4S,5R)-5-ethynyl-4-hydroxy-5-(hydroxymethyl)tetrahydrofuran-2-yl)-7H-pyrrolo[2,3-d]pyrimidin-4-yl)carbamate] — 140-fold higher, 544 nM
- C#C[C@]1(COC(=O)OCCCCCCCCCC)O[C@@H](n2ccc3c(N)nc(Cl)nc32)C[C@@H]1OC(=O)OCCCCCCCCCC [Example 92] — 920-fold higher, 3510 nM
- C#C[C@]1(COC(=O)Cc2ccc(Cl)cc2)O[C@@H](n2ccc3c(NC(=O)CCc4ccccc4)nc(Cl)nc32)C[C@@H]1O [Example 147] — 14-fold higher, 55 nM
- C#C[C@]1(CO)O[C@@H](n2ccc3c(N)nc(Cl)nc32)C[C@@H]1OC(=O)[C@H](C)c1ccccc1 [Example 99] — 7.6-fold higher, 29 nM
- C#C[C@]1(COC(=O)CCCCCCCC)O[C@@H](n2ccc3c(N)nc(Cl)nc32)C[C@@H]1O [Example 118] — within 1.5-fold, 4.3 nM
- C#C[C@]1(COC(=O)CC(C)(C)c2c(C)cc(C)cc2OC(C)=O)O[C@@H](n2ccc3c(N)nc(Cl)nc32)C[C@@H]1O [Example 183] — within 1.5-fold, 2.7 nM
- C#C[C@]1(COC(=O)OCc2ccn(C)c(=O)c2)O[C@@H](n2ccc3c(N)nc(Cl)nc32)C[C@@H]1OC(=O)OCc1ccccc1 [Example 162] — 2.3-fold higher, 8.9 nM
- C#C[C@]1(COC(=O)[C@@H](C)c2ccccc2)O[C@@H](n2ccc3c(N)nc(Cl)nc32)C[C@@H]1OC(=O)[C@@H](C)c1ccccc1 [Example 103] — 110-fold higher, 405 nM
- C#C[C@]1(COC(=O)OCC23CC(C2)C3)O[C@@H](n2ccc3c(N)nc(Cl)nc32)C[C@@H]1OC(=O)OCC12CC(C1)C2 [Example 167] — 1.9-fold higher, 7.2 nM
- C#C[C@]1(CO)O[C@@H](n2ccc3c(NC(=O)OCCCCCCCCCCCC)nc(Cl)nc32)C[C@@H]1O [Example 219] — 630-fold higher, 2410 nM
- C#C[C@]1(COC(=O)OCCC23CC(C2)C3)O[C@@H](n2ccc3c(N)nc(Cl)nc32)C[C@@H]1O [Example 170] — within 1.5-fold, 4.3 nM
- C#C[C@]1(COC(=O)OCc2ccccc2)O[C@@H](n2ccc3c(N)nc(Cl)nc32)C[C@@H]1OC(=O)OCCC12CC3CC(CC(C3)C1)C2 [Example 215] — 12-fold higher, 44 nM
- C#C[C@]1(CO)O[C@@H](n2ccc3c(N(C(=O)OCCCCCCCCCC)C(=O)OCCCCCCCCCC)nc(Cl)nc32)C[C@@H]1O [Example 220] — 160-fold higher, 615 nM
- C#C[C@]1(COC(=O)OCc2cccnc2)O[C@@H](n2ccc3c(N)nc(Cl)nc32)C[C@@H]1OC(=O)OCC [Example 172] — 6.6-fold higher, 25 nM
- C#C[C@]1(COC(=O)OCc2cccn(C)c2=O)O[C@@H](n2ccc3c(N)nc(Cl)nc32)C[C@@H]1OC(=O)OCc1ccccc1 [Example 93] — 2.1-fold higher, 7.8 nM
- C#C[C@]1(CO)O[C@@H](n2ccc3c(NC(=O)OCCCCCCCCCC)nc(Cl)nc32)C[C@@H]1O [Example 71, Decyl(2-chloro-7-((2R,4S,5R)-5-ethynyl-4-hydroxy-5-(hydroxymethyl)tetrahydrofuran-2-yl)-7H-pyrrolo[2,3-d]pyrimidin-4-yl)carbamate] — 210-fold higher, 785 nM
- C#C[C@]1(COC(=O)OCCCCC[C@@H]2SC[C@@H]3NC(=O)N[C@@H]32)O[C@@H](n2ccc3c(NC(=O)CCc4ccccc4)nc(Cl)nc32)C[C@@H]1O [Example 204] — 32-fold higher, 123 nM
- C#C[C@]1(CO)O[C@@H](n2ccc3c(NC(=O)OCCCCCCCCCCCCCC)nc(Cl)nc32)C[C@@H]1O [Example 63, Tetradecyl (2-chloro-7-((2R,4S,5R)-5-ethynyl-4-hydroxy-5-(hydroxymethyl)tetrahydrofuran-2-yl)-7H-pyrrolo[2,3-d]pyrimidin-4-yl)carbamate] — 390-fold higher, 1490 nM
- C#C[C@]1(CO)O[C@@H](n2ccc3c(NC(=O)OCCCCCC)nc(Cl)nc32)C[C@@H]1O [Example 221] — 190-fold higher, 710 nM
- C#C[C@]1(CO)O[C@@H](n2ccc3c(N)nc(Cl)nc32)C[C@@H]1OC(=O)OCc1ccc[nH]c1=O [Example 201] — within 1.5-fold, 2.6 nM
- C#C[C@]1(COC(=O)OCc2cc[nH]c(=O)c2)O[C@@H](n2ccc3c(N)nc(Cl)nc32)C[C@@H]1O [Example 130] — within 1.5-fold, 2.9 nM
- C#C[C@]1(CO)O[C@@H](n2ccc3c(NC(=O)CCC45CC6CC(CC(C6)C4)C5)nc(Cl)nc32)C[C@@H]1O [Example 69, 3-(adamantan-1-yl)-N-(2-chloro-7-((2R,4S,5R)-5-ethynyl-4-hydroxy-5-(hydroxymethyl)tetrahydrofuran-2-yl)-7H-pyrrolo[2,3-d]pyrimidin-4-yl)propanamide] — 2.6-fold higher, 10 nM
- C#C[C@]1(CO)O[C@@H](n2ccc3c(N(C(=O)OCCCCCCCCCCCC)C(=O)OCCCCCCCCCCCC)nc(Cl)nc32)C[C@@H]1O [Example 218] — higher, > 4030 nM
- C#C[C@]1(CO)O[C@@H](n2ccc3c(N)nc(Cl)nc32)C[C@@H]1OC(=O)CCCCCCCCCCCCCCC [Example 83] — 6.6-fold higher, 25 nM
- C#C[C@]1(COC(=O)OCCCc2ccccc2)O[C@@H](n2ccc3c(N)nc(Cl)nc32)C[C@@H]1O [Example 128] — within 1.5-fold, 3 nM
- C#C[C@]1(COC(=O)OCc2ccccc2)O[C@@H](n2ccc3c(N)nc(Cl)nc32)C[C@@H]1OC(=O)CCCC[C@@H]1SC[C@@H]2NC(=O)N[C@@H]21 [Example 195] — 11-fold higher, 40 nM
- C#C[C@]1(COC(=O)OCc2ccn(C)c(=O)c2)O[C@@H](n2ccc3c(N)nc(Cl)nc32)C[C@@H]1O [Example 131] — within 1.5-fold, 3.5 nM
- C#C[C@]1(CO)O[C@@H](n2ccc3c(N)nc(Cl)nc32)C[C@@H]1OC(=O)CC12CC(C1)C2 [Example 96] — 1.9-fold higher, 7.1 nM
- C#C[C@]1(COCOC(=O)c2ccccc2)O[C@@H](n2ccc3c(N)nc(Cl)nc32)C[C@@H]1OC(=O)c1ccccc1 [Example 138] — 11-fold higher, 41 nM
- C#C[C@]1(COC(=O)OCCCCC[C@@H]2SC[C@@H]3NC(=O)N[C@@H]32)O[C@@H](n2ccc3c(N)nc(Cl)nc32)C[C@@H]1OC(=O)OCCC12CC3CC(CC(C3)C1)C2 [Example 176] — 33-fold higher, 127 nM
- C#C[C@]1(COC(=O)CCCCCCCCCCCCCCCCCCC)O[C@@H](n2ccc3c(N)nc(Cl)nc32)C[C@@H]1O [Example 91] — 36-fold higher, 135 nM
- C#C[C@]1(CO)O[C@@H](n2ccc3c(N)nc(Cl)nc32)C[C@@H]1OC(=O)OCc1cc[nH]c(=O)c1 [Example 159] — 3.7-fold higher, 14 nM
- C#C[C@]1(COC(=O)CCCC)O[C@@H](n2ccc3c(N)nc(Cl)nc32)C[C@@H]1OC(=O)CC [Example 187] — 7.1-fold higher, 27 nM
- C#C[C@]1(COC(=O)OCc2cccnc2)O[C@@H](n2ccc3c(N)nc(Cl)nc32)C[C@@H]1OC(=O)OCc1ccccc1 [Example 85] — within 1.5-fold, 3.2 nM
- C#C[C@]1(COC(=O)O[C@H](C)c2ccccc2)O[C@@H](n2ccc3c(N)nc(Cl)nc32)C[C@@H]1O [Example 125] — within 1.5-fold, 3.7 nM

Tested on: not listed separately
Test: Aqueous solubility in PBS, pH 7.4
Type: physicochemical
Details: phosphate buffered saline, pH 7.4, aqueous buffer, thermodynamic from solid, pH 7.4 phosphate buffered saline, 24 hours, amorphous or crystalline material; read-out: Aqu. Solubility
Protocol: Aqueous solubility of the compounds was determined by suspending excess solid (typically 0.3-0.5 mg) in PBS, pH 7.4, at a concentration of 0.5 mg/mL. The suspension was vortexed for 10-30 seconds to wet the material and stirred at 600 rpm for 24 hours. For analysis by UPLC, 150 μL aliquot sample was transferred into a […] PVDF spin filter and centrifuged at 14,000 rpm for 5 minutes. 100 μL of the filtrate was diluted with 100 μL 1:1 Acetonitrile (ACN):H2O. The resultant samples were analyzed using UPLC and quantified against a standard curve of the compound of interest dissolved in 1:1 ACN:H2O. The retains of the solids were checked by XRPD and PLM to determine if the phase of the material was crystalline or amorphous.

With C#C[C@]1(COC(=O)CCCC)O[C@@H](n2ccc3c(N)nc(Cl)nc32)C[C@@H]1OC(=O)OCC [Example 146] the solubility at 24 h was 7 µg/mL (≈ 15.1 µM).
